The values that follow come from patent publication US7993638B2, “Cancer treatment combining lymphodepleting agent with CTLs and cytokines” (Janssen Pharmaceutica NV, priority 2006, dated 2011).

The subject of series [1] is lymphocytes. As to conditions: […] s.c., 5 consecutive days (total 0.7 mg/kg), hairy cell leukemia patients; cited from earlier work.
For series [2] the following is noted: subcutaneous versus IV; cited from earlier work.
Series [3] concerns lymphocytes. The settings on record: cited from earlier work.
For series [4] the following is noted: 0.07 mg/kg/day x 5 days monthly for 6 months, cited from earlier work.
Series [5] has as its system class I and melanoma-associated antigen expression. Nature of the series: Study 2: IHC stains of serial biopsy samples after 5-day course of IFN-alpha. In kind it is in vivo, human. As to conditions: 10 MU/m^2 s.c., five day course; serial biopsies of a single patient. The text has this:
Interferon-alpha (IFN-α) has a broad spectrum of immunomodulatory and antiproliferative effects in a variety of malignancies. It is believed that one mechanism of action of IFN-α is the upregulation of tumor antigen expression on melanoma cells. It has the ability to enhance the expression of immunologically important molecules on the surface of the tumor. These include the MHC antigens, accessory molecules, as well as tumor-associated antigens.^25-27 These immunomodulatory effects may improve the activity of the immune system, including both antibodies and lymphocytes, to recognize and attack tumor cells in vivo. […] It is believed that these two modalities of immunotherapy may act synergistically. […] The same 5-day course in clinical study was included in Study 3.

Setting [6] is: administered for 4 monthly courses.

As to `Nc1nc(Cl)nc2c1ncn2[C@H]1C[C@H](O)[C@@H](CO)O1` [cladribine, 2-chloro-2′deoxy-β-D-adenosine], in the series with lymphocytes [1], the safety entry is “safe”. Further, in series [2], the “pharmacokinetic and therapeutic results of subcutaneous route” value is “entirely equivalent to the IV route”. Also, the lymphopenia result in the series on lymphocytes [3] (MS patients) is on record as “observed in all patients”. Moreover, in the series on lymphocytes [3] (setting [6]), the “time at which lymphocyte levels begin to recover” value is on record as at most 6 months and the “time to lymphocyte nadir” value is given as 5 months. For the same molecule, the haematological toxicity result in series [4] (cumulative 2.1 mg/kg) is recorded as “no individual cases of significant thrombocytopenia, anemia granulocytopenia or generalized marrow suppression”. Besides, the “patients with mild segmental herpes zoster” value in series [4] (27 patients in drug arm, one case on placebo) is listed as “two”.

For IFN-α, the “upregulation of class I and melanoma-associated antigen expression (IHC)” value in series [5] is “sufficient to upregulate both class I and melanoma-associated antigen expression”.
